According to patent US9018219B2, “Fused aminodihydropyrimidine derivative” (Shionogi & Co., Ltd., priority 2010, dated 2015):

Assays:
CYP1A2 = target: T1, CYP1A2 (Homo sapiens, UniProt P05177); test: CYP inhibition test (CYP1A2); format: in vitro ADME; details: pooled human hepatic microsome 0.2 mg protein/mL, 15 minutes, 37° C.; read-out: IC50 CYP1A2 (7-ethoxyresorufin O-deethylation)
T1 construct: enzyme, pooled human hepatic microsome 0.2 mg protein/mL; from tissue
T1 sequence (P05177 1-516): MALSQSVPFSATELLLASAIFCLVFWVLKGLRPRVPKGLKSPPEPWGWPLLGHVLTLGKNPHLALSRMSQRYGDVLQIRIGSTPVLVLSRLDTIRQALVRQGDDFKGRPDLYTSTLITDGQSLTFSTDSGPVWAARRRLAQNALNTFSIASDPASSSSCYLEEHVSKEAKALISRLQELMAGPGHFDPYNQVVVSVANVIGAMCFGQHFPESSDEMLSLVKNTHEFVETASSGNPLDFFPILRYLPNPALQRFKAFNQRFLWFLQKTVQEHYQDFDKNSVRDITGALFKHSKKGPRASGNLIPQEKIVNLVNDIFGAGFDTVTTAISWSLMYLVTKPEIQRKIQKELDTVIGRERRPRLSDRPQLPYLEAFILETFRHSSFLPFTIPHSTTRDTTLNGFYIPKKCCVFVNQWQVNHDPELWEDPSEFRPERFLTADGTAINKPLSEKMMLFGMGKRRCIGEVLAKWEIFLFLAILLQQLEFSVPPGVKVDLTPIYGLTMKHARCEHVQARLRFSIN
From the text: (§1) Using commercially available pooled human hepatic microsome, and employing, as markers, 7-ethoxyresorufin O-deethylation (CYP1A2), tolbutamide methyl-hydroxylation (CYP2C9), mephenyloin 4′-hydroxylation (CYP2C19), dextromethorphan O-demethylation (CYP2D6), and terfenedine hydroxylation (CYP3A4) as typical substrate metabolism reactions of human main five CYP enzyme forms (CYP1A2, 2C9, 2C19, 2D6, 3A4), an inhibitory degree of each metabolite production amount by a compound of the present invention was assessed. […] After the centrifugation at 3000 rpm for 15 minutes, resorufin (CYP1A2 metabolite) in the supernatant was quantified by a multi-label counter and hydroxytolbutamide (CYP2C9 metabolite), 4′-hydroxymephenyloin (CYP2C19 metabolite), dextrorphan (CYP2D6 metabolite), and terfenadine alcohol metabolite (CYP3A4 metabolite) were quantified by LC/MS/MS. Addition of only DMSO being a solvent dissolving a compound to a reaction system was adopted as a control (100%), remaining activity (%) was calculated and IC50 was calculated by reverse presumption by a logistic model using a concentration and an inhibition rate.

CYP3A4 = CYP3A4 (Homo sapiens, UniProt P08684); test: CYP inhibition test (CYP3A4); format: in vitro ADME; set-up: enzyme, pooled human hepatic microsome 0.2 mg protein/mL; from tissue; details: pooled human hepatic microsome 0.2 mg protein/mL, 15 minutes, 37° C.; read-out: IC50 CYP3A4 (terfenedine hydroxylation)
From the text: as §1

CYP2C9 = target: T2, CYP2C9 (Homo sapiens, UniProt P11712); test: CYP inhibition test (CYP2C9); format: in vitro ADME; details: pooled human hepatic microsome 0.2 mg protein/mL, 15 minutes, 37° C.; read-out: IC50 CYP2C9 (tolbutamide methyl-hydroxylation)
T2 construct: enzyme, pooled human hepatic microsome 0.2 mg protein/mL; from tissue
From the text: as §1

[1] = tested on: Neuroblastoma SH-SY5Y cells (SH/APPwt) with human wild-type β-APP excessively expressed; test: Measurement of β-amyloid (Aβ) production inhibiting effect in cell; format: cell-based; details: 24 hours incubation, Amyloid β 1-40 HTRF in culture supernatant, read-out: IC50 (amount needed to inhibit Aβ production by 50%)
Procedure: Neuroblastoma SH-SY5Y cells (SH/APPwt) with human wild-type β-APP excessively expressed therein were prepared at 8×10^5 cells/mL, and 150 μl portions thereof were inoculated into each well of a 96-well culture plate (Falcon). The cells were cultured for 2 hours at 37° C. in a 5% gaseous carbon dioxide incubator. Then, a solution which have been preliminarily prepared by adding and suspending the compound of the present invention (DMSO (dimethyl sulfoxide) solution) so as to be 2 μl/50 μl medium was added to the cell sap. Namely, the final DMSO concentration was 1%, and the amount of the cell culture was 200 μl. After the incubation was performed for 24 hours from the addition of the test compound, 100 μl of the culture supernatant was collected from each fraction. The amount of the Aβ in each fraction was measured.
The Aβ amount was measured as follows. 10 μl of a homogeneous time resolved fluorescence (HTRF) measurement reagent (Amyloid β 1-40 peptide; IBA Molecular Holding, S.A.) and 10 μl of the culture supernatant were put into a 384-well half area microplate (black microplate, Costar) and mixed with each other, and then left standing overnight at 4° C. while the light was shielded. Then, the fluorescence intensity (excitation wavelength: 337 nm, measurement wavelength: 620 nm and 665 nm) was measured with Wallac 1420 multilabel counter (Perkin Elmer life sciences). The Aβ amount was determined from the count rate at each measurement wavelength (10000×Count 665/Count 620), and the amount needed to inhibit Aβ production by 50% (IC50) was calculated from at least six different dosages.

CYP2C19 = target: T3, CYP2C19 (Homo sapiens, UniProt P33261); test: CYP inhibition test (CYP2C19); format: in vitro ADME; details: pooled human hepatic microsome 0.2 mg protein/mL, 15 minutes, 37° C.; read-out: IC50 CYP2C19 (mephenyloin 4′-hydroxylation)
T3 construct: enzyme, pooled human hepatic microsome 0.2 mg protein/mL; from tissue
From the text: as §1

T2 sequence (P11712 whole entry): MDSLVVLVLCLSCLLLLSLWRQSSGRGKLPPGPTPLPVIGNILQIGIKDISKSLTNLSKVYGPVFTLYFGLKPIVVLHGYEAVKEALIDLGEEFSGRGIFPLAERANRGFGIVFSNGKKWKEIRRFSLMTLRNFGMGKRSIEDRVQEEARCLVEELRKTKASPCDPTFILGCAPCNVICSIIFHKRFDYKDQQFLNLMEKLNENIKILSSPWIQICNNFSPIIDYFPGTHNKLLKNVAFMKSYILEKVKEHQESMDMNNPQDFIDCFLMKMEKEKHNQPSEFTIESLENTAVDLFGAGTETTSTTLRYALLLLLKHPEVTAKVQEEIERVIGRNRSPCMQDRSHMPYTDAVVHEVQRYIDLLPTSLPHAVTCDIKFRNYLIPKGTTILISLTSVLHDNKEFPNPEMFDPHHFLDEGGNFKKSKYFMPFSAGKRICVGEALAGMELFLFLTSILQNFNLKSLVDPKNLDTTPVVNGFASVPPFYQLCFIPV
Chain of CYP3A4 (P08684 whole entry): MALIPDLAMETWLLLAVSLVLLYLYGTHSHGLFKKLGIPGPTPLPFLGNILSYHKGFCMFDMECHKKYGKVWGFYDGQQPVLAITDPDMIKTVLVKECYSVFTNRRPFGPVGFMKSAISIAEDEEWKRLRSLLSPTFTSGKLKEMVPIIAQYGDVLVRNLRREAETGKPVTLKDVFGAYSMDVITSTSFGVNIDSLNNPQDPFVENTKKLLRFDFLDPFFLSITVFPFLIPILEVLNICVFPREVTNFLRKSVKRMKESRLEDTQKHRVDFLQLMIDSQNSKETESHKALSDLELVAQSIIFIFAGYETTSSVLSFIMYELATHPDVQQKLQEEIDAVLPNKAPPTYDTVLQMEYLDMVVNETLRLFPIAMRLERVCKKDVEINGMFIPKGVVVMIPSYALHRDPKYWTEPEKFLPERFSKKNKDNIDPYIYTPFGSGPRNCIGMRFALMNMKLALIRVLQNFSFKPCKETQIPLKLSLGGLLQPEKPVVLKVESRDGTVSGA
T3 sequence (P33261 whole entry): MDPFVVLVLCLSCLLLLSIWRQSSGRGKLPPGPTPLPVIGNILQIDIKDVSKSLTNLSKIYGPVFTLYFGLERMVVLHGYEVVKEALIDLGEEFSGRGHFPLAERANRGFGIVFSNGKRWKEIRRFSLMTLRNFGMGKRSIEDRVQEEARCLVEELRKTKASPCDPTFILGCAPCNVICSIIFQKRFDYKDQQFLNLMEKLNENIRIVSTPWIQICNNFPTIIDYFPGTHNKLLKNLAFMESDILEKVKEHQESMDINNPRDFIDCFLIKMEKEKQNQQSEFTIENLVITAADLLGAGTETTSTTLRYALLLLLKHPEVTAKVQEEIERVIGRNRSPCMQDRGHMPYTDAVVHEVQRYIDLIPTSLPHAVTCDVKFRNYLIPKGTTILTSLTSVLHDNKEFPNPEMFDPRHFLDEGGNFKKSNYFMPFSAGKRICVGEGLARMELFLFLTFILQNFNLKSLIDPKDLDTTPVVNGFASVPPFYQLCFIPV

IC50 (CYP1A2): > 20 µM
IC50 (CYP3A4): > 20 µM
IC50 (CYP2C9): > 20 µM
IC50 [1]: ≤ 1 µM
IC50 (CYP2C19): > 20 µM
SMILES: C[C@@]1(c2cc(-c3cccnc3F)ccc2F)Cc2nccn2C(N)=N1 [Compound I-2]
